Read-outs that look alike come from different tables or passages of the source.
What was measured:
GAK [1] = biological target: T1, GAK (Homo sapiens, UniProt O14976); assay: TR-FRET ligand-binding displacement assay
T1 sequence (O14976 1-1311): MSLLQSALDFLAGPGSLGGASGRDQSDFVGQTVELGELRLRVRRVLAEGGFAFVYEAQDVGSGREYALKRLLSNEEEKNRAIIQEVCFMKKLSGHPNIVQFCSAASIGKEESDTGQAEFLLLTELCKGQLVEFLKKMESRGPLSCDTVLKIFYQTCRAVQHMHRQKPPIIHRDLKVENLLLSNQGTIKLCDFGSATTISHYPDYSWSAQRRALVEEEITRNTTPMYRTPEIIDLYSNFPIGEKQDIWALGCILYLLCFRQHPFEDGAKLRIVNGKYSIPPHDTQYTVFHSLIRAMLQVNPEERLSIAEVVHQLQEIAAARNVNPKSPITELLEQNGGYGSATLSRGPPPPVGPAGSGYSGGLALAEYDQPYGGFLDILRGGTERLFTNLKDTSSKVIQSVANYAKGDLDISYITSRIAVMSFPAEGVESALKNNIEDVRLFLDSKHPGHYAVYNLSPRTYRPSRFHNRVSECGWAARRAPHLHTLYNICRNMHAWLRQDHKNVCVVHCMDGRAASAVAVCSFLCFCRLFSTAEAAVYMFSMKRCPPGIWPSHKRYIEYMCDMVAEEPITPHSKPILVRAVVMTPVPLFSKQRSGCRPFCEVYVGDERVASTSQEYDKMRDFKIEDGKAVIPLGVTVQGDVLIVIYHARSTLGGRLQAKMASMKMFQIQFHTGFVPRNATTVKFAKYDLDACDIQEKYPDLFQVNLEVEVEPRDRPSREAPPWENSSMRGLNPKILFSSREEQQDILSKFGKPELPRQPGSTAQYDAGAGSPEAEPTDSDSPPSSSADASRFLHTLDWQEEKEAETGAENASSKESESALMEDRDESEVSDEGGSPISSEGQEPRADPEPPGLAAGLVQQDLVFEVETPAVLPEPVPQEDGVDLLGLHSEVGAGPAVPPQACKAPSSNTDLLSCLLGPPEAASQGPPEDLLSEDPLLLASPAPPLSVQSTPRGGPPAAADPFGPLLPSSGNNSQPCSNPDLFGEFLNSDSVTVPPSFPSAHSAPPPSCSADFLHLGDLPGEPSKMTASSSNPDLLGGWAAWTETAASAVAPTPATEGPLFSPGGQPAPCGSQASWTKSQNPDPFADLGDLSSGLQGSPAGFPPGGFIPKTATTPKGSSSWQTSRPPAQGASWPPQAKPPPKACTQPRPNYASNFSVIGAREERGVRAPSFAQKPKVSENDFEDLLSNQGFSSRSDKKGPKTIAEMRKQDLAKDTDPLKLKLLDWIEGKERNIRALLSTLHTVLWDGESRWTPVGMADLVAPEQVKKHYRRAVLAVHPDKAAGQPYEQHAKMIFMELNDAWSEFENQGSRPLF

AAK1 = AAK1 (Homo sapiens, UniProt Q2M2I8); assay: NAK family TR-FRET binding displacement assay; conditions: NAK family FRET screening
Sequence of AAK1 (Q2M2I8 whole entry): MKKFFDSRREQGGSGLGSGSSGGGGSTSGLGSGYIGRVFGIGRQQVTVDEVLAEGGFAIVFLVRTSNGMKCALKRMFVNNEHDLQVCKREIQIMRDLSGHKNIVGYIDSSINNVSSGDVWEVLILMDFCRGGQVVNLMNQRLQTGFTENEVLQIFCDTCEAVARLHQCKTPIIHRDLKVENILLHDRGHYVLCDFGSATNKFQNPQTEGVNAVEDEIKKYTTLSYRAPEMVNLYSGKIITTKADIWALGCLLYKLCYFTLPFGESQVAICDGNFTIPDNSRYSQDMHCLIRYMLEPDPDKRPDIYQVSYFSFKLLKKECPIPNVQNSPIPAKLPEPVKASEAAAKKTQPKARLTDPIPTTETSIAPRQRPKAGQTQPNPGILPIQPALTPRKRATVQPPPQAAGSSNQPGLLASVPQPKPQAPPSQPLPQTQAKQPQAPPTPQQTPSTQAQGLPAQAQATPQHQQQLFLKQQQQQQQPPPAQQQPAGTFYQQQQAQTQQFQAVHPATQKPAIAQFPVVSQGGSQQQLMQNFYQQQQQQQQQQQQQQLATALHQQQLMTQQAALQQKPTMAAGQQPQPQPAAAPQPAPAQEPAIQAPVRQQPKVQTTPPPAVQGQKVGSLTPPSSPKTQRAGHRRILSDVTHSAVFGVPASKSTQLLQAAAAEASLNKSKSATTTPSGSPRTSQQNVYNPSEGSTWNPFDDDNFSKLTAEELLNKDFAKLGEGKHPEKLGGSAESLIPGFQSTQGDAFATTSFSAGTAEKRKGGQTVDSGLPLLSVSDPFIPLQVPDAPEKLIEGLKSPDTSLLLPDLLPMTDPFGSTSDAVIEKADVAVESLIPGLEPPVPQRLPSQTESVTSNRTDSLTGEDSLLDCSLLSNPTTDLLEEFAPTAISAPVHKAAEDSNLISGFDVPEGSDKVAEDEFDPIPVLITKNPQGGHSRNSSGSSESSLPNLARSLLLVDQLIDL

GAK [2] = biological target: T1, GAK; conditions: nanoBRET; read-out: Live Cell GAK IC50; cited from earlier work
Kinetic Solubility = assay type: physicochemical; conditions: pH 7.4, aqueous buffer, kinetic from dmso stock, PBS pH7.4 (100 µM)
BMP2K = BMP2K (Homo sapiens, UniProt Q9NSY1); assay: NAK family TR-FRET binding displacement assay
Sequence of BMP2K (Q9NSY1 whole entry): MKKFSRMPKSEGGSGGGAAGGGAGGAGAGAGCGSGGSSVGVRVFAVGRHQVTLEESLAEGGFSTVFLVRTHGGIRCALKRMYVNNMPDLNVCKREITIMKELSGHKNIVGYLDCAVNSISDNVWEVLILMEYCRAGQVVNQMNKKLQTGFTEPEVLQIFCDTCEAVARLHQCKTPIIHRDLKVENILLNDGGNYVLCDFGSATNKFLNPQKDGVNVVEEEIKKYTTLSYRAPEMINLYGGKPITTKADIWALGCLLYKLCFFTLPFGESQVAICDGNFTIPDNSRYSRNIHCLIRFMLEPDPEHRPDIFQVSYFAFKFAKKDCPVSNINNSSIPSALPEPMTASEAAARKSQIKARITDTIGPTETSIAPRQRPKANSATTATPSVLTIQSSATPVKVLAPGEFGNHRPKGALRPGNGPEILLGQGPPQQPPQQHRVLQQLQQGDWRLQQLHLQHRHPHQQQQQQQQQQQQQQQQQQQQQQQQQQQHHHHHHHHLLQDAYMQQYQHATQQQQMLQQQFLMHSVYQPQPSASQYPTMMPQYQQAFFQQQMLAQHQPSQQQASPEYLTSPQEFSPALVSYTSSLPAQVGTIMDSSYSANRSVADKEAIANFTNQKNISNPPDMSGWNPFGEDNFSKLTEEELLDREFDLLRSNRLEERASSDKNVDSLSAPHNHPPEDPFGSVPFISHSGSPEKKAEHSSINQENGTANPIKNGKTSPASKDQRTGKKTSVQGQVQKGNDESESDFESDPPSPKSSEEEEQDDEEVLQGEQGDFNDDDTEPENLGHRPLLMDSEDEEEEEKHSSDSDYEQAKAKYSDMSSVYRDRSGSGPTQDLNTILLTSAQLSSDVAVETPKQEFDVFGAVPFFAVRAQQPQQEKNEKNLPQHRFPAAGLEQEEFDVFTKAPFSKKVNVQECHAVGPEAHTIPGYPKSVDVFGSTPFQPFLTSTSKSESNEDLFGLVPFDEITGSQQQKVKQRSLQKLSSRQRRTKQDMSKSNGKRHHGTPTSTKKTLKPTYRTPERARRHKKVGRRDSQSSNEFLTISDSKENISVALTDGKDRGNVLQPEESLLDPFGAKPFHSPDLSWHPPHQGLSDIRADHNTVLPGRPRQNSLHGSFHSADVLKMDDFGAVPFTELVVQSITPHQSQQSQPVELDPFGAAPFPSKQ

STK16 = STK16 (Homo sapiens, UniProt O75716); assay: NAK family TR-FRET binding displacement assay; conditions: NAK family FRET screening; read-out: Binding displacement assay STK16 Ki
Sequence of STK16 (O75716 whole entry): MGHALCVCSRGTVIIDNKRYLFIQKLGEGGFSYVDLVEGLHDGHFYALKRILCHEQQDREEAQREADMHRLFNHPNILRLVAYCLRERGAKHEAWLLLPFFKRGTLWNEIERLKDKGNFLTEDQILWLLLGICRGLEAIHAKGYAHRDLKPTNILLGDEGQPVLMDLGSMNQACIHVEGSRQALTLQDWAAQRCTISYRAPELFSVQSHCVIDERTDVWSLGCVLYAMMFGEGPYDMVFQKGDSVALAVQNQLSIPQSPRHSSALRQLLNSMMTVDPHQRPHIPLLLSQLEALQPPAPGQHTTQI

[3] = pharmacokinetic profiling in mice, oral dosing; assay type: in vivo; conditions: C57BL/6 mice, 10 mg/kg po
Experimental: Pharmacokinetic profiling was performed by SAI Life Sciences (Hyderabad, India). […] Prior approval of the Institutional Animal Ethics Committee (IAEC) was obtained before initiation of the study. Healthy male C57BL/6 mice (8–12 weeks old) weighing between 20 and 35 g were procured from (Envigo Research Private Ltd., City, Hyderabad, India). Three mice were housed in each cage. […] Temperature and humidity were recorded by an automatically controlled data logger system. All animals were provided a laboratory rodent diet (Envigo Research Private Ltd., Hyderabad, India). Reverse osmosis water treated with ultraviolet light was provided ad libitum. Eighteen male mice were weighed and divided in to two groups (Group 1 and Group 2), with nine mice in each group. […] The dosing volume administered was 10 mL/kg for the oral route. […] Plasma samples were separated by centrifugation at 4000 rpm for 10 min and stored below −70 °C until bioanalysis. […] The plasma concentration-time data were then used for the pharmacokinetic analysis. A non-compartmental analysis module in Phoenix WinNonlin (Version 6.3, Certara USA Inc., Raleigh, NC, USA) was used to assess the pharmacokinetic parameters. Maximum concentration (Cmax) and time to reach the maximum concentration (Tmax) were the observed values. The areas under the concentration time curve (AUClast and AUCinf) were calculated by linear trapezoidal rule.

[4] = mouse liver microsome metabolic stability; conditions: mouse liver microsomes; for T1/2 Ratio (+) ABT / T1/2 Ratio (−) ABT: normalized to propranolol; for T1/2 Ratio: normalization with respect to internal control (propranolol); for CLint scaled / half-life: mouse; for half-life: mean average, n = 2
Experimental: SGC-GAK-1 (1) was incubated with MLMs in the presence or absence of added NADPH, and the compound was quantified at various time points over an hour.
The metabolic stability of the 4-anilinoquinolines (8–13) were evaluated in MLMs (Table 1). Half-lives for metabolic clearance were normalized to propranolol in each experimental run to control for variations in the MLM preparations.

FLT3(ITD,F691L) = assay: KINOMEscan; assay type: binding, human; conditions: 35 at 1 µM; read-out: % inhibition
Experimental: (§1) KinomeScan Assay on 35 was performed as previously described at EuroFins DiscoverX (Fremont, CA, USA).

FLT3(ITD) = assay: KINOMEscan; assay type: binding, human; conditions: 35 at 1 µM; read-out: % inhibition
Experimental: as §1

FLT3(ITD,D835V) = assay: KINOMEscan; assay type: binding, human; conditions: 35 at 1 µM; read-out: % inhibition
Experimental: as §1

EGFR(L747-T751del,Sins) = assay: KINOMEscan; assay type: binding, human; conditions: 35 at 1 µM; read-out: % inhibition
Experimental: as §1

[5] = read-out: Kinetic Solubility µM
[6] = read-out: Kinetic Solubility µg/mL
[7] = male, C57BL/6, mouse, plasma, po, 10 mg/kg, 2 h pretreat 50 mpk ABT
[8] = male, C57BL/6, mouse, plasma, po, 10 mg/kg, without ABT
[9] = Clint (mL/min/kg) (+) ABT, (+) ABT
[10] = Clint (mL/min/kg) (−) ABT, (−) ABT
[11] = T1/2 (min), mouse liver microsomes with NADPH

COc1cc2nccc(Nc3cc(OC)c(OC)c(OC)c3)c2cc1OC [Compound 8]
Ki (GAK [1]; NAK family FRET screening, read-out: Binding displacement assay GAK Ki): 0.54 nM
Ki (AAK1): 28 µM
IC50 (GAK [2]): 25 nM
solubility kinetic (Kinetic Solubility; [5]): 128 µM
solubility kinetic (Kinetic Solubility; [6]): 47.6 µg/mL
Ki (BMP2K): 63 µM
Ki (STK16): > 100 µM
fold higher exposure with ABT pretreatment ([3]; 2 h pre-treatment with 50 mg/kg ABT vs without): 8 fold
time plasma concentration sustained at 2-fold above the cellular IC50 ([3]; pretreatment with ABT): > 8 h
AUC(0-inf) [3, 7]: 569 ng·h/mL
Tmax [3, 7]: 2 h
Cmax ([3]; male, C57BL/6, mouse, plasma, po, 10 mg/kg, 2 h pretreat 50 mpk ABT, read-out: Cmax): 107 ng/mL
AUC(0-inf) [3, 8]: 71 ng·h/mL
Tmax [3, 8]: 1 h
half-life ([3]; male, mouse, plasma, without ABT, read-out: T1/2 in mice): < 60 min
T1/2 Ratio (+) ABT ([4]; (+) ABT): 14.7
T1/2 Ratio (−) ABT ([4]; (−) ABT): 1.3
T1/2 Ratio [4]: 1.6
CLint scaled [4, 9]: < 28 mL/min/kg
CLint scaled [4, 10]: 320 mL/min/kg
half-life ([4]; T1/2 (min) (+) ABT, (+) ABT): > 200 min
half-life ([4]; T1/2 (min) (−) ABT, (−) ABT): 18 min
half-life [4, 11]: 12.2 min

Brc1ccc2nccc(Nc3ccc4cn[nH]c4c3)c2c1 [Compound 35, 6-Bromo-N-(1H-indazol-6-yl)quinolin-4-amine]
Ki (GAK [1]; TR-FRET assay, read-out: Biochemical GAK Ki): 20 nM
Ki (AAK1): 2.1 µM
solubility kinetic (Kinetic Solubility; [5]): 12.3 µM
solubility kinetic (Kinetic Solubility; [6]): 4.2 µg/mL
Ki (BMP2K): 6.5 µM
Ki (STK16): 7.4 µM
activity (FLT3(ITD,F691L)): 100%
activity (FLT3(ITD)): 97%
activity (FLT3(ITD,D835V)): 100%
activity (EGFR(L747-T751del,Sins)): 100%
T1/2 ratios fold higher than 9 [4]: ≥ 2 fold
T1/2 Ratio (+) ABT ([4]; (+) ABT): 17.5
T1/2 Ratio (−) ABT ([4]; (−) ABT): 9.8
T1/2 Ratio [4]: 9.8
CLint scaled [4, 9]: 35 mL/min/kg
CLint scaled [4, 10]: 120 mL/min/kg
half-life ([4]; T1/2 (min) (+) ABT, (+) ABT): 170 min
half-life ([4]; T1/2 (min) (−) ABT, (−) ABT): 46 min
half-life [4, 11]: 45.6 min
